For this assay, the target named is T1, β3 adrenergic receptor (β3AR-cc3.1 chimera) (Homo sapiens, UniProt P13945, E36A/M86V/I125V/E126W/Y224A/F341M/Y346L).
T1 construct: gene ADRB3; Ala2 to Leu368 lacking Pro3 to Thr27, with Thermus thermophilus SRS antiparallel coiled coil cc3.1 inserted between Ala231 and Glu286 (replacing ICL3); N-terminal FLAG and C-terminal TwinStrep tags
Put plainly: radioligand saturation binding (SPA) on membranes of HEK-293S-GnTI- cells expressing β3AR-cc3.[…].

SMILES strings stand for the structures.

As a reminder, the Kd is a measure of binding affinity in units of concentration. A lower Kd goes with tighter binding.

T1 sequence (P13945 2-368 E36A/M86V/I125V/E126W/Y224A/F341M/Y346L): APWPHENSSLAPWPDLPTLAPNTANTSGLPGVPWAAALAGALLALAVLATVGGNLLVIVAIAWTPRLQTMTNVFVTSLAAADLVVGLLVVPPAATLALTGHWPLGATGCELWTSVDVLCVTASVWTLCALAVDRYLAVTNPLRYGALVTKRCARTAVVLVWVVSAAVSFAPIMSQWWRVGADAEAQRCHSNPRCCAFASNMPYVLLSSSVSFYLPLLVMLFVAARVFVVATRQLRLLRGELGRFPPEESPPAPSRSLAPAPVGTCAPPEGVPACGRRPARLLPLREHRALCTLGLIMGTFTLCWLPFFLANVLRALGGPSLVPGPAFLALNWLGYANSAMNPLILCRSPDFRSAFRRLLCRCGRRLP

In turn, `CCCc1ccccc1OC[C@@H](O)CNC(C)C` [[3H]-dihydroalprenolol] yielded a Kd of 150 nM.

Values taken from publication PMC10287670, “A coiled-coil-based design strategy for the thermostabilization of G-protein-coupled receptors” (Scientific Reports, 2023).
